Measurements: ChEMBL document CHEMBL1201862, “PubChem BioAssay data set” (2004)
Calls of active or inactive are those of the source.

Tests used:
[1] = biological target: T1, Alkaline phosphatase, tissue-nonspecific isozyme (Homo sapiens, UniProt P05186); assay: potency against alkaline phosphatase TNAP – biochemical, luminescent, dose response, SAR follow-up (AID 1056)
T1 sequence (P05186 whole entry): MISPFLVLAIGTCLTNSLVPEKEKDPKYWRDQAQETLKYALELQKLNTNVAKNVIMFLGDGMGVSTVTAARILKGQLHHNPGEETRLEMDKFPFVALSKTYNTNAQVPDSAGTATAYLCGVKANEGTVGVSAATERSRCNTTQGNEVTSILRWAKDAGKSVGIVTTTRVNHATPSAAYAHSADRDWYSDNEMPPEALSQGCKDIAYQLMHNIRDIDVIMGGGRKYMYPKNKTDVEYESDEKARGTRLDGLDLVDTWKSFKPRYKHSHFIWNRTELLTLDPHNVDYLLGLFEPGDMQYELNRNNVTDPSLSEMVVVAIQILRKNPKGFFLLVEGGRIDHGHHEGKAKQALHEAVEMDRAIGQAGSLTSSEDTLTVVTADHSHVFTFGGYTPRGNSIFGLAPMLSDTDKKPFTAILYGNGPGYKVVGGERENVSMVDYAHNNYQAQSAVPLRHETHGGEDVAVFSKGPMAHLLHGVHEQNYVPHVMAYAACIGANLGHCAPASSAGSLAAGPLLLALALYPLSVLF

[2] = biological target: Glyceraldehyde-3-phosphate dehydrogenase (Homo sapiens, UniProt P04406)
Sequence of Glyceraldehyde-3-phosphate dehydrogenase (P04406 whole entry): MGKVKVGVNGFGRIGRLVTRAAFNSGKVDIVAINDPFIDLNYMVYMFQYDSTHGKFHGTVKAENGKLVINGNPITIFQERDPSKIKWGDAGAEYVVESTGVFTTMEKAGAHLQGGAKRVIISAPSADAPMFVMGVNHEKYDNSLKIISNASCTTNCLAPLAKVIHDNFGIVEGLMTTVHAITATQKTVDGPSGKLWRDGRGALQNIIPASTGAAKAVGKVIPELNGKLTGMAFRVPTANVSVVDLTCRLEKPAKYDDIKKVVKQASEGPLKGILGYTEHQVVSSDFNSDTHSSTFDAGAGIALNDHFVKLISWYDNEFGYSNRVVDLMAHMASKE

[3] = biological target: Alkaline phosphatase, placental type (Homo sapiens, UniProt P05187); assay: human placental alkaline phosphatase inhibition – biochemical, luminescence, confirmation (AID 1512); type: functional
Sequence of Alkaline phosphatase, placental type (P05187 whole entry): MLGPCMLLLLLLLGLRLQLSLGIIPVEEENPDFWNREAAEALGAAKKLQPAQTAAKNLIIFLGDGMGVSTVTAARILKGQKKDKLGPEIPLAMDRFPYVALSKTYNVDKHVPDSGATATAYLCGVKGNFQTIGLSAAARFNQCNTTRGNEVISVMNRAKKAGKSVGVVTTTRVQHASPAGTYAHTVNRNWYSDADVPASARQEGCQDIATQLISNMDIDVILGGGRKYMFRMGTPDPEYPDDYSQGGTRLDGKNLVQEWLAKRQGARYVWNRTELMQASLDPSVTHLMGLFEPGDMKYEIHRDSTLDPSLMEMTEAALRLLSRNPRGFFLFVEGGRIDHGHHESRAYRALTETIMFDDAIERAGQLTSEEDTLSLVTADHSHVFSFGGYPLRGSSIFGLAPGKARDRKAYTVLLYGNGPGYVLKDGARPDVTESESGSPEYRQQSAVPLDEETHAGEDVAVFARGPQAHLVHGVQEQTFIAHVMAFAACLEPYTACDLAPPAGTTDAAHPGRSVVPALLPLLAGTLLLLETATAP

Trypsin = Trypsin (Sus scrofa, UniProt P00761); assay: trypsin protease activity blockade – biochemical, quenched peptide fluorescence, cherry-pick, selectivity assay for Rce1 protease inhibitor project, dose response (AID 488789)
Sequence of Trypsin (P00761 whole entry): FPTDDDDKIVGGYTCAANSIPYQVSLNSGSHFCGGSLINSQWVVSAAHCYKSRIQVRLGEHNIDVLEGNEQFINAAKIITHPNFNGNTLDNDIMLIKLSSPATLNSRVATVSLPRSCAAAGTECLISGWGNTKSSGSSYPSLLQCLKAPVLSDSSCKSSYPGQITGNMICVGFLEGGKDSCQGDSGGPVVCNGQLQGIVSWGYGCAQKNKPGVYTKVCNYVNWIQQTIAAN

CAAX prenyl protease 2 = CAAX prenyl protease 2 (Saccharomyces cerevisiae S288c, UniProt Q03530); type: biochemical
Sequence of CAAX prenyl protease 2 (Q03530 whole entry): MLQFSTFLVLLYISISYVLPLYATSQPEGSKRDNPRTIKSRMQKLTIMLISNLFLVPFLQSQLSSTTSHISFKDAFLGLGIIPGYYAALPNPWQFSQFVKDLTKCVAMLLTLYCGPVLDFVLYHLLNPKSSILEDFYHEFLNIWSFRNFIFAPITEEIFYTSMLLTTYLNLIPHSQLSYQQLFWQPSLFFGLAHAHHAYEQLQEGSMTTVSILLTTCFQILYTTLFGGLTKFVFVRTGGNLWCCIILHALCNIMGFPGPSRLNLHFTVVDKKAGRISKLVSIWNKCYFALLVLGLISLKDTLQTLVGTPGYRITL

[4] = biological target: Eukaryotic translation initiation factor 4E (Mus musculus, UniProt P63073); assay: blockers of eIF4G binding by eIF4E – biochemical, TR-FRET, dose response (AID 855); type: functional;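 note: potency for disrupting eIF4E binding to eIF4GI seen as loss of FRET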
Sequence of Eukaryotic translation initiation factor 4E (P63073 whole entry): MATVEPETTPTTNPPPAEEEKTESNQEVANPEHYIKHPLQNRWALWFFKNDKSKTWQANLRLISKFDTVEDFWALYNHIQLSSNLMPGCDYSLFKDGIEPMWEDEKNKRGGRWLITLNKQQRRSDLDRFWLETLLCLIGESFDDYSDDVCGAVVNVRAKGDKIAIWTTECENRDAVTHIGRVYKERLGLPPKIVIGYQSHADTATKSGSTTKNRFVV

[5] = Trypanosoma cruzi growth suppression in host cells – NIH3T3 host cells, beta-gal luminescence, confirmation (AID 2044); type: functional, cell-based;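 note: intracellular parasites grown in NIH/3T3 mouse fibroblasts as host cells; luminescent beta-galactosidase reporter signal from transgenic T. cruzi replicating inside host cells; inhibitors lower the luminescence signal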
[6] = decrease of insulin promoter-GFP reporter – imaging, high-content screening, mouse beta cells (AID 1628); type: functional; settings: MIN6
INS1 = assay: INS-1E survival protection against cytokine death – cell-based, luminescence, retest, dose response (AID 449756); type: functional; settings: Rattus norvegicus;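 note: cell death triggered by IL-1 beta plus TNF-alpha plus IFN-gamma mixture; protective hits raise ATP signal compared with cytokine alone wells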
[7] = MIN6 cell viability loss – mouse insulinoma, cytotoxicity control, dose response (AID 2122); type: functional;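 note: confirmatory high-throughput counterscreen run to flag cytotoxic compounds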
[8] = NIH3T3 cell viability loss – ATP luminescence, mouse fibroblasts, counter-screen, dose response (AID 2010); type: functional, cell-based;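 note: cells exposed to compound for about 90 hours before reading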
[9] = toxicity toward cultured mammalian cells – cell-based, plate reader, cherry-pick samples, cytotoxicity control, dose response (AID 504397); type: functional
[10] = biological target: Voltage-dependent T-type calcium channel subunit alpha-1H (Homo sapiens, UniProt O95180); type: functional;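 note: channel activity triggered by adding a high calcium stimulation buffer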
Sequence of Voltage-dependent T-type calcium channel subunit alpha-1H (O95180 whole entry): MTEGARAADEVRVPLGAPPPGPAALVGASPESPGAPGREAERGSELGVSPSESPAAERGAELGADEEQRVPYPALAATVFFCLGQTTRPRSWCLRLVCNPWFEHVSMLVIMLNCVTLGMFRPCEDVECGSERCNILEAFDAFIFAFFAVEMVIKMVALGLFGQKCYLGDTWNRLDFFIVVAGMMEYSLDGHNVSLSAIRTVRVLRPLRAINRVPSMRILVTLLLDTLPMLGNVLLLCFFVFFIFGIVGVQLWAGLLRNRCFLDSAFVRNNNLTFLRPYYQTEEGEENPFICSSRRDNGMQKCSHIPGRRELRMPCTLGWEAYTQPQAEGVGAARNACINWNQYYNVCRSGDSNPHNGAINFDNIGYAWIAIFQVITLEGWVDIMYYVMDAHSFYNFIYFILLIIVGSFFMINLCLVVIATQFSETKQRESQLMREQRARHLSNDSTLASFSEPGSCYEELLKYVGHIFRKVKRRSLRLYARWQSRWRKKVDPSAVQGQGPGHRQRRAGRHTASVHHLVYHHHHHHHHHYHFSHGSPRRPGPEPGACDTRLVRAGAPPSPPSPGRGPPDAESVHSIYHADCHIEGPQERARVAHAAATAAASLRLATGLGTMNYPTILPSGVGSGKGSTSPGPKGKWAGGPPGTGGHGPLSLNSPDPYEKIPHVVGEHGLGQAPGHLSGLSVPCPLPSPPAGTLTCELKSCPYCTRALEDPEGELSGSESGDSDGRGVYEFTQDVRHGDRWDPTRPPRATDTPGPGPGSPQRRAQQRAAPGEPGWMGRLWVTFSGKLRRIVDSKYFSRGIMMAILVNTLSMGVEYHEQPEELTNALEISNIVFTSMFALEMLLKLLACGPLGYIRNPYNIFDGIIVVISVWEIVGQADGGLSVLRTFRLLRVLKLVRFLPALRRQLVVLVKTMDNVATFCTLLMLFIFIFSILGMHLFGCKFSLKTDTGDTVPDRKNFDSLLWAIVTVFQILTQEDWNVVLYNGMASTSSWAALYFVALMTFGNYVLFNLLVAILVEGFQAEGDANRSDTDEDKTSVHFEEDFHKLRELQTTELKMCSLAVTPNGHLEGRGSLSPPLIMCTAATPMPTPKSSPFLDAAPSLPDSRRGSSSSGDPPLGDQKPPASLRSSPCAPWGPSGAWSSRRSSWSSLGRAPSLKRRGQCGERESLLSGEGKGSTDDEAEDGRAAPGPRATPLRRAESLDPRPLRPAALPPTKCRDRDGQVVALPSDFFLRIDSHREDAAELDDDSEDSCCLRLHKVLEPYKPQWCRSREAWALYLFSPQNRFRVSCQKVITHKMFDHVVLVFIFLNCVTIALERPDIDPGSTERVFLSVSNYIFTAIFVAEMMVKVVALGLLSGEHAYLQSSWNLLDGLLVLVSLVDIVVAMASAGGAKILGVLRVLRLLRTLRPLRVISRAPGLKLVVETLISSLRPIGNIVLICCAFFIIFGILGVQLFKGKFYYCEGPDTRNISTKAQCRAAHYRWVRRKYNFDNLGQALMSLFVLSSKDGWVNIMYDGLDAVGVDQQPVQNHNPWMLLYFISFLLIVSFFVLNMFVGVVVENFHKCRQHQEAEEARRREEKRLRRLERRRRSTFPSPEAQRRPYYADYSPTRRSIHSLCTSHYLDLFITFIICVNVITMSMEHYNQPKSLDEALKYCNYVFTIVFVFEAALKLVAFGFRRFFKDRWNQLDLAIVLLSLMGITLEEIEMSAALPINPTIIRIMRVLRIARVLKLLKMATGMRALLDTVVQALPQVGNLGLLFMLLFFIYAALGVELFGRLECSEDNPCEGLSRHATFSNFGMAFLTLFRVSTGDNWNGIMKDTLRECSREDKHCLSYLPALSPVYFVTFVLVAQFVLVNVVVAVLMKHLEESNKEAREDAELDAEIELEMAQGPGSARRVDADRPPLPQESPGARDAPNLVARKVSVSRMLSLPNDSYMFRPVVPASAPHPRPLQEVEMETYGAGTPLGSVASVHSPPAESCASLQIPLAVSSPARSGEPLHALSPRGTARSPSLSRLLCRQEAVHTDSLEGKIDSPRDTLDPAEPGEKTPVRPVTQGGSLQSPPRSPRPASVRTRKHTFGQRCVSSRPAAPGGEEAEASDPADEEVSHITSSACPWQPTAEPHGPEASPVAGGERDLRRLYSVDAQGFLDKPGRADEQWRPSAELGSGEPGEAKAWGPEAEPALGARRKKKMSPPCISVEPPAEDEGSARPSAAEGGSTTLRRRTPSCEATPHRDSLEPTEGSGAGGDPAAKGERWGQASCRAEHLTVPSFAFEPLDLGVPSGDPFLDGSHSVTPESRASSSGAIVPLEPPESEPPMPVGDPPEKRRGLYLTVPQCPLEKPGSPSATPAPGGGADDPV

Streptococcus = assay: GAS UMAA2166 growth inhibition – luminescence, BacTiterGlo, counter-screen for streptokinase expression inhibitor project, dose response (AID 1915); type: functional, organism-based;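 note: potency for reduction of bacterial viability or growth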
[11] = reduction of Shn3 3'UTR-driven luciferase in osteoblasts – cell-based, Clone20 osteoblasts, firefly luciferase, cherry-picked, dose response (AID 624132); type: functional;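 note: firefly luciferase luminescence from reporter carrying the Shn3 3'UTR in osteoblasts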
[12] = loss of viability in HepG2 cells – cell-based, CellTiter-Glo, cherry-picked, cytotoxicity control for Shn3 inhibitor project, dose response (AID 624134); type: functional
[13] = non-specific 3'UTR reporter inhibition in Clone20-Shn3RL – cell-based, Renilla luciferase, cherry-picked, counter-screen for Shn3 inhibitor project, dose response (AID 624133); type: functional
Streptokinase A = biological target: T2, Streptokinase A (Streptococcus pyogenes serotype M1, UniProt P10520); assay: viability-normalized secreted streptokinase activity reduction – plasminogen activation absorbance, OD405, dose response (AID 1914); type: functional, Streptococcus pyogenes M1 GAS;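 note: secreted streptokinase activity via plasminogen activation per viability signal from cell pellet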
T2 sequence (P10520 whole entry): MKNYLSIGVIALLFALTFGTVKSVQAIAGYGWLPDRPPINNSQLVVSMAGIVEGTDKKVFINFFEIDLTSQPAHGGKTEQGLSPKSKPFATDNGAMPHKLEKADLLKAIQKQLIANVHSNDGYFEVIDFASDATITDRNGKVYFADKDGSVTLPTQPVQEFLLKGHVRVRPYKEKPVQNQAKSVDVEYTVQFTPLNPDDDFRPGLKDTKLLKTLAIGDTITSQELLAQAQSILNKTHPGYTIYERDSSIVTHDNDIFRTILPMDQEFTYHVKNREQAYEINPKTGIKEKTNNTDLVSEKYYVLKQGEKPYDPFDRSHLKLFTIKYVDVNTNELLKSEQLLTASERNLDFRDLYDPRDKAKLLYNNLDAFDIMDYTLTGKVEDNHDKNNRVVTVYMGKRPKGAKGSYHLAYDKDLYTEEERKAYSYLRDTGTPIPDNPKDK

[14] = biological target: Neurotensin receptor type 1 (Homo sapiens, UniProt P30989); type: functional;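 note: Image-based confirmatory dose-response assay measuring agonist activity at NTR1; NTR1-expressing U2OS osteosarcoma cells imaged for beta-arrestin GFP spot formation; agonist potency where compounds increase beta-arrestin recruitment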
Sequence of Neurotensin receptor type 1 (P30989 whole entry): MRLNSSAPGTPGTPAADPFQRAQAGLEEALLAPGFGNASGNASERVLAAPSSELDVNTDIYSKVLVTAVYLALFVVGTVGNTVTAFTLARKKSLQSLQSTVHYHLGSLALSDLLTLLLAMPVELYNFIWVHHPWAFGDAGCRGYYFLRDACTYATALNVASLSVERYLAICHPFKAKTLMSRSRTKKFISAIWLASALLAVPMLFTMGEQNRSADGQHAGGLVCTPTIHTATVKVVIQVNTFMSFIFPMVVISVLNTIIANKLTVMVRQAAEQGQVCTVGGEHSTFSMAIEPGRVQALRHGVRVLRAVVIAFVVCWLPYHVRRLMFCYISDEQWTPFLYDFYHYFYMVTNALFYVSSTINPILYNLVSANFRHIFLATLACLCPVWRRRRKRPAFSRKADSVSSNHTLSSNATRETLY

[15] = microbe, parasite or virus in culture; type: functional; settings: Mycobacterium tuberculosis
[16] = viability loss in THP-1 monocytes – THP-1 cells, cytotoxicity control for Vif-APOBEC3G degradation inhibitor project, dose response (AID 1117359); type: functional; settings: THP-1
[17] = system: Streptococcus sp. 'group A'; assay: Streptococcus pyogenes SK(-)GAS viability under kanamycin – luminescence, BacTiterGlo, confirmation, counter-screen for streptokinase expression inhibitor project, dose response (AID 1900); type: functional, organism-based

COc1cc(CCc2nc(N)nn2-c2ccccc2)cc(OC)c1OC
IC50 [1]: > 100 µM (inactive) | IC50 [2]: > 100 µM (not active) | IC50 [3]: > 100 µM (inactive)

N#Cc1c(Cl)nc(Cl)c2c1CCN(Cc1ccccc1)C2
AC50 (Trypsin): 7.02 µM (active) | AC50 (CAAX prenyl protease 2): 22.8 µM (active)

Cc1ccc(NC(=O)CN2C(=O)S/C(=C/c3ccc(-c4cccc(C(=O)O)c4)o3)C2=O)cc1
IC50 [4]: 50 µM (inactive)

Cc1ccc(-c2cn3c([n+]2-c2ccccc2)CCC3)cc1
EC50 [5]: 0.94 µM (active) | IC50 [6]: < 0.25 µM (active) | AC50 (INS1): 2.5 µM (active) | IC50 [7]: < 0.25 µM (active) | EC50 [8]: > 60 µM (not active)

O=C(CN(C1CCCCC1)C1CCCCC1)N1CCc2ccccc2C1
AC50 [9]: 204 µM (active) | EC50 [10]: 4.36 µM (active)

Cc1cc(C)n(-c2nc(Nc3ccccc3C(F)(F)F)nc(-n3nc(C)cc3C)n2)n1
EC50 (Streptococcus): 8.12 µM (active) | AC50 [11]: 5.49 µM (active) | AC50 [12]: 58.1 µM (active) | AC50 [13]: 5.19 µM (active) | EC50 (Streptokinase A): > 150 µM (not active) | EC50 [14]: 26 µM (inactive) | CC50 [15]: 12.4 µM (active) | CC50 [16]: 3.77 µM (active) | EC50 [17]: 5.15 µM (active) | AC50 (INS1): 4.01 µM (active)

Cc1ccc(-c2cc(C(F)F)n3ncc(C(=O)NN4CCCCC4)c3n2)cc1
IC50 [6]: 2.39 µM (active) | IC50 [7]: 6.4 µM (active)
